In publication PMC9312238, “Novel Organoselenium Redox Modulators with Potential Anticancer, Antimicrobial, and Antioxidant Activities” (Antioxidants, 2022):
Read-outs that look alike come from different tables or passages of the source.

Columns and labels:
[1] = ABTS radical scavenging bioassay; format: biochemical; conditions: for radical scavenging activity, ABTS assay: compound 1 mM in phosphate-buffered methanol, 734 nm; for IC50: concentration decreasing absorbance by 50%
Text: The antioxidant activity was estimated by ABTS and DPPH bioassays, according to the reported literature method. More details are in the Supplementary Materials.
Recently, OSe compounds were thoroughly used as redox modulators to control many complicated diseases (e.g., cancer and neurodegenerative diseases). The DPPH and ABTS bioassays were extensively used as rapid tools for estimating the antioxidant potency of OSe compounds [50, 51]. Ascorbic acid was used as a standard control, and the antioxidant potency was measured by the ability of the compounds to decolorize the characteristic colors of the ABTS^. and DPPH^. radicals by following the colorimetric decline in absorbance at 734 and 517 nm, respectively (Figure 2).
Figure 2 Evaluation of the antioxidant properties of the OSe compounds employing the ABTS and DPPH assays. All measurements are mean ± SD. In the DPPH assay: absorbance was read after 0.5 h of mixing […] of DPPH with […] of OSe compounds (1 mM, MeOH) at 517 nm. In the ABTS assay: […] of each OSe compound (1 mM, phosphate-buffered methanol) was mixed with the ABTS solution (60 mM), and absorbance was monitored at 734 nm.
The antioxidant activity of the investigated compounds was assessed using 2,2’-az-ino-bis(3-ethylbenzothiazoline-6-sulphonic acid (ABTS) method. The radical cation derived from ABTS was prepared by the reaction of 60 mM ABTS solution with 0.3 M manganese dioxide solution in 0.1M phosphate buffer, pH 7. Then, the mixture was shaken, centrifuged, filtered, and the absorbance (Acontrol) of the resulting green-blue solu-tion (ABTS radical solution) was measured at wavelength 734 nm. Then, […] of 1 mg/ml test compound in phosphate-buffered methanol was added. The absorbance (Atest) was measured. The reduction in color intensity was expressed as % inhibition. The % inhibi-tion for each compound is calculated from the following equation
Inhibition% = (Acontrol-Asample)/(Acontrol)*100
Ascorbic acid (vitamin C) was used as a standard antioxidant (positive control). A blank sample was run without ABTS and using MeOH/phosphate buffer (1:1) instead of the sample. A negative control sample was run with MeOH/phosphate buffer (1:1) instead

HepG2 cells = assay: cells; format: cell-based, human; conditions: for IC50: MTT, 24 h incubation, HepG2 cells, read-out: HepG2 IC50; for HepG2 TI (IC50 WI-38 / IC50 HepG2): therapeutic index, ratio of WI-38 IC50 to HepG2 IC50
Description: Cells were obtained from the ATCC Company (VACSERA), Cairo, Egypt. MTT assay were performed according to the literature method. More details are in the Supporting Information.
Recently, OSe compounds gained much attention as possible drug candidates due to their various pharmacological properties. Our group has reported several OSe candidates with potential anticancer, antimicrobial, and antioxidant activities. Therefore, the anticancer attributes of the newly prepared OSe compounds were estimated using the MTT assay against MCF-7 and HepG2 and compared with their respective cytotoxicity in WI-38 primary cells. The anthracycline drug doxorubicin was used as the standard. The minimal inhibition concentration required to kill 50% of the cells (IC50) was calculated from dose-response curves presented in Table 1. Moreover, the therapeutic index (TI) was also calculated (according to Equation (1)), which is considered a measure of the selectivity and safety of the synthesized compounds. (1) TI=IC50 for the normal WI38 cells/IC50 for the cancer cells […]
1.1. The biological assays
1.1.1. The anticancer activity
The breast adenocarcinoma (MCF-7), Hepatocellular carcinoma (HEPG-2), and nor-mal fibroblast (WI-38) cells were obtained from ATCC via Holding company for biological products and vaccines (VACSERA), Cairo, Egypt. The reagents RPMI-1640 medium, MTT, DMSO, and fetal bovine serum was obtained from Sigma Aldrich. Dulbecco’s modified Eagle’s medium was used as the culture medium for the cells, and the cytotoxicity was evaluated using the reported MTT assay. Doxorubicin was used as the positive reference, and the IC50 values were obtained from the corresponding dose-response curve.
This colorimetric assay is based on converting the yellow tetrazolium bromide (MTT) to a purple formazan derivative by mitochondrial succinate dehydrogenase in viable cells.
Cell lines were cultured in RPMI-1640 medium with 10% fetal bovine serum. Antibiotics added were 100 units/ml penicillin and 100µg/ml streptomycin at 37 C in a 5% Co2 incu-bator. The cell lines were seeded in a 96-well plate at a density of 1.0x10^4 cells/well. at 37 C for 48 h under 5% Co2. After incubation, the cells were treated with different concentra-tions of compounds and incubated for 24 h. After 24 h of drug treatment, 20 µl of MTT solution at 5mg/ml was added and incubated for 4 h. Finally, dimethyl sulfoxide (DMSO) in the volume of 100 µl is added to each well to dissolve the purple formazan formed. The colorimetric assay is measured and recorded at an absorbance of 570 nm using a plate reader (EXL 800, USA). The percentage of the relative cell viability was calculated as (A570 of treated samples/A570 of the untreated sample) X 100. […]
(§1) Inhibition%= (Ablank-Asample)/(Ablank)*100. (1)

Candida albicans = assay: microbe, parasite or virus in culture; format: cell-based; design: C. albicans A% (activity index): concentration or dose not given beside the values; conditions: for zone of inhibition at 20 µM: Candida albicans, read-out: C. albicans IZD (mm); for C. albicans A% (activity index): zone of test compound / zone of standard (clotrimazole) x 100
Description: The antimicrobial activities of the OSe compounds were evaluated against C. albicans yeast, as well as E. coli and S. bacteria, employing the agar well diffusion assay. Furthermore, the MICs (in µM) were determined by the microdilution method according to the reported protocol. More details are in the Supporting Information.
Compounds were evaluated for their antimicrobial activity against the Gram-negative bacteria Escherichia coli (E. coli) and the Gram-positive bacteria Staphylococcus aureus (S. aureus), as well as the Candida albicans (C. albicans) fungal strain, using the agar diffusion assay. Ampicillin and clotrimazole were used as standards. Indeed, the antimicrobial properties of the OSe compounds were also obtained from the activity index percentage (A%) according to Equation (2). (2) A%=Zone of inhibition by test compound diametre/Zone of inhibition by standard diametre×100 . […]
1.1.1. The antimicrobial activity
The antimicrobial activities of the OSe compounds were evaluated against C. albicans yeast as well as E. coli gram-negative and S. aureus gram-positive bacteria employing the agar well diffusion assay. […]
compound by dissolving in DMSO. […]
Petri dishes, which in turn contain a nutrient media (agar 20 g, peptone 5 g, and beef extract 3 g) seeded with the dedicated strain. Incubation lasted for 24 h at 36
Furthermore, the MICs (in µM) were determined by the microdilution method according to the reported protocol. […]
as §1

[2] = inhibition zone diameter, six-mm disks soaked with 20 μM of compound

| Compound | radical scavenging activity, ABTS assay [1] [%] | IC50 (HepG2 cells; Homo sapiens) [µM] | HepG2 TI (IC50 WI-38 / IC50 HepG2) (HepG2 cells) | melting point [°C] | zone of inhibition at 20 µM (Candida albicans; [2]) [mm] | C. albicans A% (activity index) (Candida albicans) [%] | IC50 [1] [µM] | IC50 (HepG2 cells) [µM] | C. albicans IZD (mm) (Candida albicans; [2]) |
| --- | --- | --- | --- | --- | --- | --- | --- | --- | --- |
| C[Se]c1ccc(NC(=O)CCC(=O)O)cc1 [Compound 16, 4-((4-(methylselanyl)phenyl)amino)-4-oxobutanoic acid] | 71 | 32.6 ± 2.3 | 0.7 | 169.6 | 12 | 50 |  |  |  |
| 2-((4-(2-(3-hydroxynaphthalen-1(4H)-ylidene)hydrazinyl)phenyl)selanyl)-N-phenylacetamide [Compound 9] | 88 |  | 5.3 |  |  | 88 | 28.87 ± 0.2 | 7.48 ± 0.6 | 21 |
| O=C(C[Se]c1ccc(N2C(=O)CCC2=O)cc1)Nc1ccccc1 [Compound 14, 2-((4-(2,5-dioxopyrrolidin-1-yl)phenyl)selanyl)-N-phenylacetamide] | 81 | 12.6 ± 1 | 5 | 159 to 161 | 15 | 63 |  |  |  |
| CCOc1ccc(NC(=O)C[Se]c2ccc(N)cc2)cc1 [Compound 5, 2-((4-aminophenyl)selanyl)-N-(4-ethoxyphenyl)acetamide] | 53 | > 100 |  | 136 to 137 | 8 | 33 |  |  |  |
| Nc1ccc([Se]CC(=O)Nc2ccccc2)cc1 [Compound 4, 2-((4-aminophenyl)selanyl)-N-phenylacetamide] | 78 | 18.3 ± 1.3 | 2.9 | 121 to 122 | 13 | 54 |  |  |  |
| Nc1ccc([Se]CC(=O)N[C@@H](Cc2c[nH]c3ccccc23)C(=O)O)cc1 [Compound 6, (2-((4-aminophenyl)selanyl)acetyl)tryptophan] | 85 | 8.86 ± 0.7 | 3.2 | 154 to 156 | 20 | 83 | 31.92 ± 0.29 |  |  |
| O=C(O)CCC(=O)Nc1ccc([Se]CC(=O)Nc2ccccc2)cc1 [Compound 11, 4-oxo-4-((4-((2-oxo-2-(phenylamino)ethyl)selanyl)phenyl)amino)butanoic acid] | 74 | 26.7 ± 1.9 | 2.5 | 163 to 165 | 13 | 54 |  |  |  |
| C[Se]c1ccc(NC(=O)C=CC(=O)O)cc1 [Compound 15, 4-((4-(methylselanyl)phenyl)amino)-4-oxobut-2-enoic acid] | 84 | 9.94 ± 0.8 | 2 | 171 | 16 | 67 |  |  |  |
